In publication PMC10287898 (2023):

Columns and labels:
Experiment in all cases: ligand-induced self-cleavage, PAGE, SYBR Gold
[1] = system: II-R1-3 (DNA, aptamer) CATGACCACTAGGAGCATCTTTGGCGAGAAGACTCTGGATTCGGGGACCAGTTGCTGCTAGGGGAATAAATCTTTGGGCACCTAGTGGTCATG; conditions: 100 mM NaCl, 40 mM MgCl2, 1 mM ZnCl2, 50 mM HEPES, pH 7.05; for KD: apparent, half-maximal cleavage, 0.1-100 μM ligand; for ligand-induced cleavage: 30 min
[2] = system: II-R1-7 (DNA, aptamer) CATGACCACTAGGAGCATCTTTGGCGATCCTCGTCAGATGGTGAAGCAGACGTTTGGCTAGGGGAATAAATCTTTGGGCACCTAGTGGTCATG; conditions: 100 mM NaCl, 40 mM MgCl2, 1 mM ZnCl2; 50 mM HEPES, pH 7.05; apparent, half-maximal cleavage
[3] = system: II-R1-1 (DNA, aptamer) CATGACCACTAGGAGCATCTTTGGCGAGATCGGGAGAATCGGTGGCATTGGTGTCTCCTAGGGGAATAAATCTTTGGGCACCTAGTGGTCATG; conditions: 100 mM NaCl, 40 mM MgCl2, 1 mM ZnCl2; 50 mM HEPES, pH 7.05; apparent, half-maximal cleavage

KD [1] [µM]	KD [2] [µM]	KD [3] [µM]	ligand-induced cleavage ([1]; 100 μM, fraction cleaved 0.235 (L-Phe 0.325))	ligand-induced cleavage ([1]; tested at 100 μM, no cleavage induced)	SMILES
6.8 ± 0.7	118.9 ± 11.7	71.6 ± 9.8	–	–	N[C@@H](Cc1ccc(O)cc1)C(=O)O
–	–	–	yes	–	NC(Cc1ccc(F)cc1)C(=O)O (racemic)
–	–	–	–	no	N[C@H](Cc1ccccc1)C(=O)O
4.8 ± 1.4	19.3 ± 2.4	20.3 ± 1.6	–	–	N[C@@H](Cc1ccccc1)C(=O)O
